In the supplement of paper PMC10331698:
± gives the standard deviation of the averaged measurements.

Legend:
Test in all cases: level (log10 ratio to DMSO vehicle control); higher = higher biomarker level / cell amount than vehicle control
[1] = compound: O=C(O)C(F)(F)OC(F)(F)C(F)(F)OC(F)(F)C(F)(F)OC(F)(F)C(F)(F)C(F)(F)C(F)(F)F [Perfluoro-3,6,9-trioxatridecanoic acid] (in DMSO); conditions: 6700 nM
Protocol: (§1)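 BioMAP Diversity Plus panel of 12 human primary cell co-culture systems (3C, 4H, LPS, SAg, BT, BF4T, BE3C, CASM3C, HDF3CGF, KF3CT, MyoF, Mphg). Compounds were added 1 h before stimulation and left for 24 h (MyoF 48 h; BT 72 h for soluble read-outs or 6 d for IgG). Biomarkers were read by ELISA, cytotoxicity by SRB, PBMC viability and proliferation by Alamar Blue. Each well value was divided by the mean of 8 DMSO control wells on the same plate and log10 transformed; duplicate blinded samples were tested at 4 concentrations.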

[2] = compound: OCCC(F)(F)C(F)(F)C(F)(F)C(F)(F)F [4:2 Fluorotelomer alcohol] (in DMSO)
Protocol: as §1

[3] = compound: O=C(O)C(F)(OC(F)(F)C(F)(F)C(F)(F)F)C(F)(F)F [Ammonium perfluoro-2-methyl-3-oxahexanoate] (in Water)
Protocol: as §1

[4] = compound: O=C(O)C(F)(OC(F)(F)C(F)(OC(F)(F)C(F)(OC(F)(F)C(F)(F)C(F)(F)F)C(F)(F)F)C(F)(F)F)C(F)(F)F [Perfluoro-(2,5,8-trimethyl-3,6,9-trioxadodecanoic)acid] (in DMSO)
Protocol: as §1

[5] = compound: O=C(O)C(F)(F)C(F)(F)C(F)(F)OC(F)(F)F [Perfluoro(4-methoxybutanoic) acid] (in DMSO)
Protocol: as §1

[6] = compound: O=C(O)C=C(C(F)(F)F)C(F)(F)F [3,3-Bis(trifluoromethyl)-2-propenoic acid] (in DMSO)
Protocol: as §1

[7] = compound: O=S(=O)(O)C(F)(F)C(F)(F)OC(F)(F)C(F)(F)F [Perfluoro(2-ethoxyethane)sulfonic acid] (in DMSO)
Protocol: as §1

Test System	level (log10) [1]	level (log10) ([2]; 6700 nM)	level (log10) ([2]; 20000 nM)	level (log10) ([2]; 60000 nM)	level (log10) ([3]; 6700 nM)	level (log10) ([3]; 20000 nM)	level (log10) ([3]; 60000 nM)	level (log10) ([4]; 1100 nM)	level (log10) ([4]; 3300 nM)	level (log10) ([4]; 10000 nM)	level (log10) ([5]; 6700 nM)	level (log10) ([5]; 20000 nM)	level (log10) ([5]; 60000 nM)	level (log10) ([6]; 6700 nM)	level (log10) ([6]; 20000 nM)	level (log10) ([6]; 60000 nM)	level (log10) ([7]; 6700 nM)	level (log10) ([7]; 20000 nM)	level (log10) ([7]; 60000 nM)
BE3C:CXCL8/IL-8	-0.259 ± 0.0014	-0.001 ± 0.0085	-0.006 ± 0.0014	0.043 ± 0.04	-0.013 ± 0.071	0.0005 ± 0.011	0.0195 ± 0.011	0.05 ± 0.038	0.039 ± 0.023	0.0625 ± 0.00071	0.0325 ± 0.028	0.0325 ± 0.016	0.0655 ± 0.042	-0.016 ± 0.0042	-0.026 ± 0.0085	-0.0075 ± 0.04	0.0135 ± 0.016	0.008 ± 0.038	0.04 ± 0.0028
BE3C:CXCL9/MIG	-1.19 ± 0.017	-0.0055 ± 0.016	0.0065 ± 0.0078	0.0025 ± 0.0021	0.0065 ± 0.013	0.0045 ± 0.005	0 ± 0.0042	-0.001 ± 0.0071	0.0025 ± 0.0078	0.0045 ± 0.015	0.0005 ± 0.013	-0.006 ± 0.016	-0.0005 ± 0.00071	-0.007 ± 0.014	-0.007 ± 0.0057	0.005 ± 0.023	0.002 ± 0.0042	-0.0145 ± 0.012	-0.0055 ± 0.0035
BE3C:CXCL10/IP-10	-1.1 ± 0.023	-0.009 ± 0.021	0.002 ± 0.016	-0.0015 ± 0.0035	-0.0095 ± 0.013	-0.001 ± 0.0042	0.0115 ± 0.0092	0.035 ± 0.024	0.0325 ± 0.015	0.036 ± 0.0071	-0.0045 ± 0.0078	-0.001 ± 0.0085	0.0045 ± 0.0035	-0.022 ± 0.027	-0.0195 ± 0.026	-0.0295 ± 0.00071	-0.008 ± 0.02	-0.024 ± 0.033	-0.01 ± 0.0071
BE3C:CXCL11/I-TAC	-0.992 ± 0.025	0.004 ± 0.0014	0.0075 ± 0.0078	0.0155 ± 0.012	-0.011 ± 0.0057	0.0115 ± 0.0021	-0.0045 ± 0.0078	0.0145 ± 0.0092	0.0165 ± 0.013	0.014 ± 0.016	0.011 ± 0.018	0.008 ± 0.0085	0.0135 ± 0.0092	-0.0375 ± 0.0092	-0.033 ± 0.023	-0.019 ± 0.011	0.032 ± 0.0057	0.076 ± 0.0042	0.073 ± 0.0042
BE3C:EGFR	-0.212 ± 0.022	-0.0165 ± 0.022	-0.002 ± 0.018	0.0315 ± 0.011	-0.016 ± 0.023	-0.009 ± 0.0085	0.005 ± 0.0057	0.0085 ± 0.0021	0.0035 ± 0.0035	0.0185 ± 0.0078	0.016 ± 0.0071	0.0035 ± 0.015	0.009 ± 0.016	-0.015 ± 0.014	-0.011 ± 0.0085	-0.0015 ± 0.012	0 ± 0.0014	-0.019 ± 0.017	-0.004
BE3C:HLA-DR	-0.8695 ± 0.0078	-0.0265 ± 0.052	-0.0075 ± 0.03	0.002 ± 0.0099	-0.022 ± 0.013	-0.0015 ± 0.018	-0.0265 ± 0.0021	-0.0055 ± 0.005	-0.0095 ± 0.0021	0.0085 ± 0.0078	-0.0005 ± 0.019	0.007 ± 0.0071	0.021 ± 0.021	-0.0175 ± 0.0064	-0.0245 ± 0.011	-0.0355 ± 0.016	-0.0085 ± 0.033	-0.012 ± 0.014	-0.0335 ± 0.0092
BE3C:IL-1alpha	-0.469 ± 0.052	-0.0425 ± 0.026	-0.0345 ± 0.016	-0.017 ± 0.0085	-0.0215 ± 0.013	-0.001 ± 0.0028	-0.0085 ± 0.005	-0.019 ± 0.0028	-0.0175 ± 0.035	0.004 ± 0.018	-0.0045 ± 0.037	0.014 ± 0.0042	0.0245 ± 0.0021	0.012 ± 0.02	0.0005 ± 0.0092	0.001 ± 0.023	0.0015 ± 0.0021	0.0045 ± 0.0035	0.0085 ± 0.005
BF4T:CCL2/MCP-1	-0.155 ± 0.11	0.0035 ± 0.073	-0.0015 ± 0.021	0.0275 ± 0.005	0.007 ± 0.031	0.005 ± 0.048	0.0285 ± 0.021	0.007 ± 0.028	0.0015 ± 0.00071	-0.004 ± 0.017	0.031 ± 0.031	0.007 ± 0.054	0.035 ± 0.028	0.0005 ± 0.0021	-0.052 ± 0.031	-0.0635 ± 0.0064	0.0155 ± 0.0064	0.0155 ± 0.0064	0.0315 ± 0.039
BF4T:CCL26/Eotaxin-3	-0.395 ± 0.018	-0.037 ± 0.068	0.016 ± 0.073	0.001 ± 0.082	-0.128 ± 0.03	-0.0995 ± 0.06	-0.137 ± 0.03	-0.026 ± 0.018	0.009 ± 0.025	0.034 ± 0.021	0.0195 ± 0.06	0.0005 ± 0.0035	0.0065 ± 0.0021	-0.089 ± 0.03	-0.124 ± 0.0014	-0.126 ± 0.067	0.019 ± 0.0014	-0.0075 ± 0.00071	0.039 ± 0.038
BF4T:CD54/ICAM-1	-0.0705 ± 0.019	-0.0055 ± 0.025	0.0135 ± 0.03	-0.003 ± 0.034	-0.0155 ± 0.012	-0.0265 ± 0.016	-0.0075 ± 0.0021	0.0025 ± 0.018	0.004 ± 0.0042	0.004 ± 0.0085	-0.005 ± 0.024	-0.013 ± 0.027	-0.0005 ± 0.0035	-0.0195 ± 0.005	-0.0205 ± 0.005	-0.0075 ± 0.013	-0.003 ± 0.0028	-0.0125 ± 0.0064	-0.008 ± 0.017
BF4T:CD90	0.0045 ± 0.0021	-0.0285 ± 0.0078	-0.0085 ± 0.03	-0.0125 ± 0.0064	-0.0065 ± 0.011	-0.015 ± 0.011	-0.007 ± 0.024	0.001 ± 0.0042	0 ± 0.0028	0.0085 ± 0.0035	-0.009 ± 0.011	-0.006 ± 0.0099	0 ± 0.0028	-0.0205 ± 0.011	-0.022 ± 0.0042	-0.0235 ± 0.019	-0.01 ± 0.0085	-0.0185 ± 0.0092	-0.0185 ± 0.0021
BF4T:CD106/VCAM-1	-0.205 ± 0.067	-0.049 ± 0.083	0.022 ± 0.062	0.0485 ± 0.083	-0.0735 ± 0.039	-0.018 ± 0.0085	-0.008 ± 0.0014	-0.027 ± 0.0028	-0.0185 ± 0.026	-0.018 ± 0.023	-0.005 ± 0.023	-0.012 ± 0.0071	-0.0015 ± 0.04	-0.0755 ± 0.0064	-0.0945 ± 0.005	-0.047 ± 0.067	0.003 ± 0.0057	0.0045 ± 0.028	0.021 ± 0.055
BF4T:CXCL8/IL-8	0.0165 ± 0.049	0.0235 ± 0.039	0.035 ± 0.0014	0.082 ± 0.0014	-0.0135 ± 0.036	0.0295 ± 0.028	0.0255 ± 0.03	0.0365 ± 0.0078	0.034 ± 0.024	0.034 ± 0.016	0.04 ± 0.069	0.014 ± 0.086	0.0245 ± 0.028	-0.0135 ± 0.022	-0.022 ± 0.0099	0.0345 ± 0.05	0.008 ± 0.0099	0.005 ± 0.024	0.0365 ± 0.011
BF4T:IL-1alpha	-0.055 ± 0.013	-0.0245 ± 0.028	0.004 ± 0.0028	0.0055 ± 0.016	0.018 ± 0.03	0.0055 ± 0.036	-0.0085 ± 0.021	-0.005 ± 0.0099	-0.0105 ± 0.00071	-0.0025 ± 0.0035	0.007 ± 0.013	0.008 ± 0.028	-0.003 ± 0.023	-0.009 ± 0.0057	-0.003 ± 0.0085	-0.0065 ± 0.035	-0.0065 ± 0.0078	-0.016 ± 0.0071	0.0165 ± 0.0092
BF4T:Keratin 8/18	-0.0195 ± 0.079	-0.026 ± 0.021	-0.0185 ± 0.039	0.017 ± 0.0028	-0.0205 ± 0.0078	-0.008 ± 0.035	-0.022 ± 0.014	0.024 ± 0.0099	0.0055 ± 0.022	0.018 ± 0.0099	0.0035 ± 0.032	0.001 ± 0.05	0.013 ± 0.045	-0.012 ± 0.0085	-0.012 ± 0.0028	0.007 ± 0.014	0.0015 ± 0.012	-0.01 ± 0.0028	0.023 ± 0.037
